The results in this text go back to US20120101137A1, “NOVEL THIOPHENECARBOXAMIDE DERIVATIVE AND PHARMACEUTICAL USE THEREOF” (SANWA KAGAKU KENKYUSHO CO., LTD., priority 2009, published 2012).

Structures can show the parent of a compound that is named as a salt.

The first assay has as its target T1, human glucokinase (Homo sapiens, UniProt P35557).
T1 construct: made in house; host or cells: E. coli
T1 sequence (P35557 16-465): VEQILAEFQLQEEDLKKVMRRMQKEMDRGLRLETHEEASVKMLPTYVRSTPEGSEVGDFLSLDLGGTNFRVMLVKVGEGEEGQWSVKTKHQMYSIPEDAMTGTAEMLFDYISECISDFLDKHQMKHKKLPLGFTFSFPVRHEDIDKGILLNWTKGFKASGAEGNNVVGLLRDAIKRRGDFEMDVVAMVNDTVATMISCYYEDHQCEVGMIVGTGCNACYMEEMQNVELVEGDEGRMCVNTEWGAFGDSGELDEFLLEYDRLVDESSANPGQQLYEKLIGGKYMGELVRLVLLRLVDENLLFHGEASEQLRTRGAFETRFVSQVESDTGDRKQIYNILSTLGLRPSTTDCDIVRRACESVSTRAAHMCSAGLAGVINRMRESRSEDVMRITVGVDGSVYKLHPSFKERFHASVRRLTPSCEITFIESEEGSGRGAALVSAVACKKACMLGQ
Kind of assay: Measurement of glucokinase activity (G6PDH-coupled, absorbance at 340 nm). It counts as biochemical. The settings on record: read-out: GK activation effect (%). The protocol: To the EcoRI, HindIII site of a pQE-80 expression vector were introduced a DNA fragment in which the same restriction enzyme site had been added to the N-terminal deficiency (1-15 amino acids deficiency)-encoding region of a human GK. E. coli was transformed by using this plasmid to express a human glucokinase, and purification was conducted as follows.
A fungus body that had been collected from 200 ml of an E. coli culture solution was collected and suspended in 20 ml of Extraction buffer A (20 mM HEPES, pH 8.0, 1 mM MgCl2, 150 mM NaCl, 2 mM mercaptoethanol, 0.25 mg/ml lysozyme, […] sodium azide), and the suspension was stood still at room temperature for 5 minutes. 20 ml of Extraction buffer B (1.5 M NaCl, 100 mM CaCl2, 100 mM MgCl2, 0.02 mg/ml DNA catabolic enzyme 1, a protease inhibitor tablet (Complete (registered trademark) 1697498): one tablet per 20 ml of the buffer) was added therero, followed by standing still at room temperature for 5 minutes. The extract liquid was then centrifuged by 15,000 g for 30 minutes at 4° C., and the supernatant was used as an E. coli extract liquid. The E. coli extract liquid was filtered by a 0.45 μm filter and applied to an Ni-NTA agarose 2 mL bed that had been equilibrated with a buffer (20 mM HEPES pH 8.0, 0.5 M NaCl) comprising 20 mM of imidazole. The bed was washed with about 10 ml of a washing buffer and eluted stepwise with buffers (20 mM HEPES pH 8.0, 0.5 M NaCl) each comprising imidazole by from 40 to 500 mM. Each of the column fractions was analyzed by using SDS gel electrophoresis, and the fraction comprising hGK (MW: 52 KDa) was concentrated. The concentrated sample was then passed through a Sephacryl S-200HR (11/60) gel filtration column and eluted with buffer B (20 mM HEPES, pH 8.0, 1 mM MgCl2, 150 mM NaCl, 1 mM DTT). The eluted fraction was analyzed by SDS gel electrophoresis, and the fraction comprising hGK was concentrated. Finally, 50% glycerol was added to the fraction, and the fraction was stored at −20° C.
178 μl of GK assay mix (25 mM Hepes buffer (pH 7.1), 25 mM KCl, 2 mM MgCl2, 1 mM NADP, 1 mM dithiotheitol, 2 unit/mL G6PDH, 5 mM D-glucose, a suitable amount of GK) was added to a UV permeable 96-well plate. 2 μl of the test compound dissolved in DMSO was added thereto, followed by standing still at room temperature for 10 minutes, and 20 μl al of 20 mM ATP was then added thereto to start a reaction. An absorbance at 340 nm was measured by Spectra Max Plus for 5 minutes at intervals of 30 seconds at room temperature, and the compound was evaluated in the reaction at the first 3 minutes.
Regarding `Cc1sc([C@@H]2C[C@@H](F)CN2C(=O)CNS(C)(=O)=O)cc1C(=O)Nc1ncc(F)s1` [Example 12, (−)-5-[(2S,4R)-4-Fluoro-1-(2-methanesulfonylaminoacetyl)pyrrolidin-2-yl]-2-methylthiophene-3-carboxylic acid (5-fluorothiazol-2-yl)amide], the activation at 10 µM worked out at 630%.
The same measure, in the same setting: with `CC(=O)N[C@@H](C)C(=O)N1C[C@H](F)C[C@H]1c1cc(C(=O)Nc2ncc(F)s2)c(C)s1` [Example 23, (−)-5-[(2S,4R)-1-((S)-2-Acetylaminopropionyl)-4-fluoropyrrolidin-2-yl]-2-methylthiophene-3-carboxylic acid (5-fluorothiazol-2-yl)amide] the figure was 641%.

The same assay, now with this note: test compound at final concentration of 10 μM, 5 mM D-glucose, in comparison with a well that did not comprise the compound; read-out: GK activation effect (%).
On to `CCCCCN(CC(=O)O)CC(=O)N1CCCC1c1cc(C(=O)Nc2ncc(F)s2)c(C)s1` (stereo not drawn) [Example 81, [(2-[2-[4-(5-Fluorothiazol-2-ylcarbamoyl)-5-methylthiophen-2-yl]pyrrolidin-1-yl]-2-oxoethyl)pentylamino]acetic acid], for which the activation at 10 µM amounted to 787%.
The same measure, in the same setting: in the case of `Cc1sc(C2CCCN2C(=O)[C@H](C)NC(N)=O)cc1C(=O)Nc1ncc(F)s1` (single isomer, unassigned; (-)) [Example 22] it was 613%; in that of `Cc1sc(C2CCCN2C(=O)CN(C)CCCCC(=O)O)cc1C(=O)Nc1ncc(F)s1` (stereo not drawn) [Example 78, 5-[(2-{2-[4-(5-Fluorothiazol-2-ylcarbamoyl)-5-methylthiophen-2-yl}pyrrolidin-1-yl]-2-oxoethyl)methylamino]pentanoic acid hydrochloride], 695%.
On the same count and under the same terms, with `Cc1sc(C2CCCN2C(=O)CNC(N)=O)cc1C(=O)Nc1ncc(F)s1` (single isomer, unassigned; (-)) [Example 10, (−)-2-Methyl-5-[1-(2-ureidoacetyl)pyrrolidin-2-yl]thiophene-3-carboxylic acid (5-fluorothiazol-2-yl)amide] the figure was 600%; with `Cc1sc(C2CCCN2C(=O)CN(C)CCCCC(=O)O)cc1C(=O)Nc1ncc(Cl)s1` (stereo not drawn) [Example 79, 5-[(2-{2-[4-(5-Chlorothiazol-2-ylcarbamoyl)-5-methylthiophen-2-yl]pyrrolidin-1-yl}-2-oxoethyl)methylamino]pentanoic acid hydrochloride], 717%; with `Cc1sc([C@@H]2C[C@@H](F)CN2C(=O)CN(C)CC(=O)O)cc1C(=O)Nc1ncc(F)s1` [Example 38, [(2-{(2S,4R)-4-Fluoro-2-[4-(5-fluorothiazol-2-ylcarbamoyl)-5-methylthiophen-2-yl]pyrrolidin-1-yl}-2-oxoethyl)methylamino]acetic acid hydrochloride], 801%.
The same measure, in the same setting: with `CCCCCN(CC(=O)O)CC(=O)N1C[C@H](F)C[C@H]1c1cc(C(=O)Nc2ncc(F)s2)c(C)s1` [Example 80, [(2-[(2S,4R)-4-Fluoro-2-[4-(5-fluorothiazol-2-ylcarbamoyl)-5-methylthiophen-2-yl]pyrrolidin-1-yl]-2-oxoethyl)pentylamino]acetic acid] the figure was 752%.
